How the values were obtained:
serotonin transporter = target: T1, serotonin transporter (Rattus norvegicus, UniProt P31652); experiment: Displacement of 3H-paroxetine from male rat frontal cortical membranes (serotonin transporter affinity); type: binding; conditions: read-out: 5-HT Transporter Affinity KI
T1 construct: displace ^3H-paroxetine from male rat frontal cortical membranes; from tissue; host or cells: male rat frontal cortex membranes

human 5-HT1A receptors = target: T2, human 5-HT1A receptors (Homo sapiens, UniProt P08908); experiment: Displacement of [3H] 8-OHDPAT from 5-HT1A receptor, CHO cells stably transfected with human 5-HT1A receptors; type: binding; conditions: CHO cells with human 5-HT1A receptors, read-out: 5-HT1A Receptor Affinity KI
T2 construct: expressed in transfected cells; host or cells: CHO cells
T2 sequence (P08908 1-422): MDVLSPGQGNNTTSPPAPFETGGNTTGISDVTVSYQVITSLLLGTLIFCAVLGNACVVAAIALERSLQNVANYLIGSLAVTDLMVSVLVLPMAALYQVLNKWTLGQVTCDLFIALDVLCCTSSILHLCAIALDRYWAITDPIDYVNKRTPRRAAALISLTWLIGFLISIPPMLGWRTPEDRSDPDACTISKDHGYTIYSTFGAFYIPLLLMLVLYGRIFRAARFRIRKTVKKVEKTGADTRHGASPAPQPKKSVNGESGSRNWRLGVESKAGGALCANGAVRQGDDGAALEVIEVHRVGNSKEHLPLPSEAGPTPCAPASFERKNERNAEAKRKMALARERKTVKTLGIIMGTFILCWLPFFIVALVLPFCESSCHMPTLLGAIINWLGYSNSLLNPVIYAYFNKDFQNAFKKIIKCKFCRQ
From the text: High affinity for the serotonin 5-HT1A receptor was established by testing the claimed compound's ability to displace [^3H] 8-OHDPAT (dipropylaminotetralin) from the 5-HT1A serotonin receptor following a modification of the procedure of Hall et al., J. Neurochem. 44, 1685 (1985) which utilizes CHO cells stably transfected with human 5-HT1A receptors.

[1] = target: T3, cloned human 5HT1A receptors (Homo sapiens, UniProt P08908); experiment: 35S-GTPγS binding assay, membranes containing cloned human 5HT1A receptors; type: biochemical; conditions: for IC50: antagonist potency, reversal of the effects of the standard agonist 8-OHDPAT, read-out: 5-HT1A Function IC50; for Emax: maximum inhibitory effect, read-out: 5-HT1A Function (Imax)
T3 construct: expressed in transfected cells
T3 sequence (P08908 1-422): T2 sequence (P08908 1-422)
Experimental: Antagonist activity at 5-HT1A receptors was established by using a ^35S-GTPγS binding assay similar to that used by Lazareno and Birdsall (Br. J. Pharmacol. 109: 1120, 1993), in which the test compound's ability to affect the binding of ^35S-GTPγS to membranes containing cloned human 5HT1A receptors was determined. Agonists produce an increase in binding whereas antagonists produce no increase but rather reverse the effects of the standard agonist 8-OHDPAT. The test compound's maximum inhibitory effect is represented as the Imax, while its potency is defined by the IC50.

T1 sequence (P31652 whole entry): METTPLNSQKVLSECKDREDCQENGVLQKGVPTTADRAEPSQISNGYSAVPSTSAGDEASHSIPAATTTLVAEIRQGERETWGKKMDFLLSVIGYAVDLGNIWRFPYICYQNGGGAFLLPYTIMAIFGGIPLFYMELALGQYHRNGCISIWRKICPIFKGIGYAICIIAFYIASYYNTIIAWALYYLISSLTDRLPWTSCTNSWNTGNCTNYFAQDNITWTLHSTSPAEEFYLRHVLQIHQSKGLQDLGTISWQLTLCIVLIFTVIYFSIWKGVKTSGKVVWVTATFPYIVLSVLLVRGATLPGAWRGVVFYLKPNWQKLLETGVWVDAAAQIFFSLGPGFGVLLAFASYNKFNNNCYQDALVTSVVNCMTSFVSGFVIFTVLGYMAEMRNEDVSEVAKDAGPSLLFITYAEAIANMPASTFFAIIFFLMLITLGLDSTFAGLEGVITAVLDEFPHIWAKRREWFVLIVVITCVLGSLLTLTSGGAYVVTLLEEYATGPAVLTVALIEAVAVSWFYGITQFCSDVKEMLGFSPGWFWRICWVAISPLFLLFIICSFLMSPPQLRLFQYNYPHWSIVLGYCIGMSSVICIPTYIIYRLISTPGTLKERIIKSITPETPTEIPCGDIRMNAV

Structure (SMILES)	Ki (serotonin transporter) [nM]	Ki (human 5-HT1A receptors) [nM]	IC50 [1] [nM]	Emax [1] [%]
COc1cccc2c(CCCNCC3COc4ccc5nc(C)ccc5c4O3)coc12 (stereo not drawn) [Example 19, N-[3-(7-Methoxy-1-benzofuran-3-yl)propyl]-N-(8-methyl-2,3-dihydro-[1,4]dioxino[2,3-f]quinolin-2-ylmethyl)amine]	14.6	0.2	50.1	95.4
Cc1ccc2c3c(ccc2n1)OC[C@H](CNCCCc1csc2ccccc12)O3 [Example 20]	2.82	0.38	188	100
Cc1ccc2c3c(ccc2n1)OCC(CNCCc1csc2ccccc12)O3 (stereo not drawn) [Example 21, N-[2-(1-Benzothien-3-yl)ethyl]-N-(8-methyl-2,3-dihydro-[1,4]dioxino[2,3-f]quinolin-2-ylmethyl)amine]	62	0.6	25.9	37.5
Cc1ccc2c3c(ccc2n1)OC[C@H](CN(C)CCCc1csc2ccccc12)O3 [Example 22, N-[3-(1-Benzothien-3-yl)propyl]-N-methyl-N-(8-mthyl-2,3-dihydro-[1,4]dioxino[2,3-f]quinolin-2-ylmthyl)amin]	4.3	7.12	878	85.5
Cc1nc2ccc3c(c2o1)O[C@@H](CNCCCc1c[nH]c2ccc(F)cc12)CO3 [Example 23, N-[3-(5-Fluoro-1H-indol-3-yl)propyl]-N-(2-methyl-7,8-dihydro-[1,4]dioxino[2,3-g][1,3]benzoxazol-8-ylmethyl)amine]	1.85	0.7	19.3	85.8
Cc1nc2ccc3c(c2o1)OC(CN(C)CCCc1c[nH]c2ccc(F)cc12)CO3 (stereo not drawn) [Example 24, N-[3-(5-Fluoro-1H-indol-3-yl)propyl]-N-methyl-N-(2-methyl-7,8-dihydro[1,4]dioxino[2,3-g][1,3]benzoxazol-8-ylmethyl)amine]	1.4	4.45	157	100
CCN(CCCc1c[nH]c2ccc(F)cc12)CC1COc2ccc3nc(C)ccc3c2O1 (stereo not drawn) [Example 25, N-Ethyl-N-[3-(5-Fluoro-1H-indol-3-yl)propyl]-N-(8-methyl-2,3-dihydro-[1,4]dioxino[2,3-f]quinolin-2-ylmethyl)amine]	0.6	5.47	43.5	94
Cc1ccc2c3c(ccc2n1)OCC(CNCCCc1cn(C)c2c(F)cc(F)cc12)O3 (stereo not drawn) [Example 26, N-[3-(5,7-Difluoro-1-methyl-1H-indol-3-yl)propyl]-N-(8-methyl-2,3-dihydro-[1,4]dioxino[2,3-f]quinolin-2-ylmethyl)amine]	5.9	3.26	180	90.2
Cc1ccc2c3c(ccc2n1)OCC(CN(C)CCCc1cn(C)c2c(F)cc(F)cc12)O3 (stereo not drawn) [Example 27, N-[3-(5,7-Difluoro-1-methyl-1H-indol-3-yl)propyl]-N-methyl-N-(8-methyl-2,3-dihydro-[1,4]dioxino[2,3-f]quinolin-2-ylmethyl)amine]	6.7	52.9	341	100
Cc1ccc2c3c(ccc2n1)OCC(CNCCCc1c[nH]c2ccc(C#N)cc12)O3 (stereo not drawn) [Example 29, 3-{3-[(8-Methyl-2,3-dihydro-[1,4]dioxino[2,3-f]quinolin-2-ylmethyl)-amino]-propyl}-1H-indole-5-carbonitrile]	0.9	1.64	55.8	94
Cc1nc2ccc3c(c2o1)O[C@@H](CNCCCc1c[nH]c2ccc(C#N)cc12)CO3 [Example 30, 3-{3-[(2-Methyl-7,8-dihydro-[1,4]dioxino[2,3-g][1,3]benzoxazol-8-ylmethyl)amino]-propyl}-1H-indole-5-carbanitrile]	1.8	5.35	68	73.1
Cc1nc2ccc3c(c2o1)O[C@@H](CN(C)CCCc1c[nH]c2ccc(C#N)cc12)CO3 [Example 31, 3-{3-[M thyl-(2-methyl-7,8-dihydro-[1,4]dioxino[2,3[-g][1,3]benzoxazol-8-ylmethyl)-amino]-propyl)}-1H-indole-5-carbonitrile]	2.4	35.3	205	97.7
Cc1ccc2c3c(ccc2n1)OC[C@H](CN(C)CCCc1c[nH]c2ccc(C#N)cc12)O3 [Example 32]	1	5.46	233	100
Cc1ccc2c3c(ccc2n1)OCC(CNCCCn1ccc2ccc(F)cc21)O3 (stereo not drawn) [Example 33, [3-(6-Fluoro-indol-1-yl)-propyl]-(8-methyl-2,3-dihydro-[1,4]dioxino[2,3-f]quinolin-2-ylmethyl)amine]	2.2	21.2	200	73.5
Cc1ccc2c3c(ccc2n1)OCC(CN(C)CCCn1ccc2ccc(F)cc21)O3 (stereo not drawn) [Example 34, [3-(6-Fluoro-indol-1-yl)-propyl]-methyl-(8-methyl-2,3-dihydro-[1,4]dioxino[2,3-f]quinolin-2-ylmethyl)-amine]	8.1	0.29	193	100

Further lines, results first:

Ki (serotonin transporter) [nM]	Ki (human 5-HT1A receptors) [nM]	IC50 [1] [nM]	Emax [1] [%]	Structure (SMILES)
2.4	0.56	66.6	78.9	Cc1ccc2c3c(ccc2n1)OCC(CNCCCCc1cn(C)c2ccc(F)cc12)O3 (stereo not drawn) [Example 35, [4-(5-Fluoro-1-methyl-1H-indol-3-yl)-butyl]-(8-methyl-2,3-dihydro-[1,4]dioxino[2,3-f]quinolin-2-ylmethyl)-amine]
1.9	16.3	486	91.9	CCN(CCCc1c[nH]c2ccc(F)cc12)C[C@H]1COc2ccc3nc(C)oc3c2O1 [Example 36, Ethyl-[3-(5-fluoro-1H-indol-3-yl)-propyl]-(2-methyl-7,8-dihydro-[1,4]dioxino[2,3-g][1,3]benzoxazol-8-ylmethyl)-amine]
2.6	1.12	21.4	100	Cc1ccc2c3c(ccc2n1)OC[C@H](CNCCCc1cn(C)c2ccc(C#N)cc12)O3 [Example 37, 1-Methyl-3-{3-[(8-methyl-2,3-dihydro-[1,4]dioxino[2,3-f]quinolin-2-ylmethyl)-amino]-proyl}-1H-indole-5-carbonitrile]
1.31	0.06	25.8	85.5	Cc1ccc2c3c(ccc2n1)OCC(CNCCCCn1ccc2ccc(F)cc21)O3 (stereo not drawn) [Example 38, [4-(6-Fluoro-indol-1-yl)-butyl]-(8-methyl-2,3-dihydro-[1,4]dioxino[2,3-f]quinolin-2-ylmethyl)-amine]
0.5	0.85	263	78.5	Cc1ccc2c3c(ccc2n1)OC[C@H](CNCCCCc1c[nH]c2ccc(C#N)cc12)O3 [Example 39, 3-{4-[(8-Methyl-2,3-dihydro-[1,4]dioxino[2,3-f]quinolin-2-ylmthyl)-amino]-butyl}-1H-indole-5-carbonitrile]
7	17.7	1980	100	Cc1ccc2c3c(ccc2n1)OCC(CN(C)CCCc1cn(C)c2ccc(C#N)cc12)O3 (stereo not drawn) [Example 40, 1-Methyl-3-{3-[methyl-(8-methyl-2,3-dihydro-[1,4]dioxino[2,3-f]quinolin-2-ylmethyl)-amino]-propyl}-1H-indole-5-carbonitrile]
0.5	13.1	344	100	Cc1ccc2c3c(ccc2n1)OCC(CN(C)CCCCc1c[nH]c2ccc(F)cc12)O3 (stereo not drawn) [Example 43, [4-(5-Fluoro-1H-indol-3-yl)-butyl]-methyl-(8-methyl-2,3-dihydro-[1,4]dioxino[2,3-f]quinolin-2-ylmethyl}-amine]
3.4	9.99	372	100	Cc1ccc2c3c(ccc2n1)OCC(CN(C)CCCCc1cn(C)c2ccc(F)cc12)O3 (stereo not drawn) [Example 44, [4-(5-Fluoro-1-methyl-1H-indol-3-yl)-butyl]-methyl-(8-methyl-2,3-dihydro-[1,4]dioxino[2,3-f]quinolin-2-ylmethyl)-amine]
1	108	1090	100	CCCN(CCCc1c[nH]c2ccc(F)cc12)CC1COc2ccc3nc(C)ccc3c2O1 (stereo not drawn) [Example 45, [3-(5-Fluoro-1H-indol-3-yl)-propyl]-(8-methyl-2,3-dihydro-[1,4]dioxino[2,3-f]quinolin-2-ylmethyl)-propyl-amine]

Reference: patent US6800637B2, “Antidepressant indolealkyl derivatives of heterocycle-fused benzodioxan methylamines” (Wyeth, priority 2002, dated 2004)
